Source: US20220162169A1, “6-OXO-1,6-DIHYDROPYRIDAZINE PRODRUG DERIVATIVE, PREPARATION METHOD THEREFOR, AND APPLICATION THEREOF IN MEDICINE” (JIANGSU HENGRUI MEDICINE CO., LTD., priority 2019, published 2022)
Values after ≈ are worked out from the molar mass of the structure shown.

Tests used:
[1] = Solubility in PBS solution (pH 7.4) at room temperature; format: physicochemical; conditions: PBS solution (pH 7.4), aqueous buffer, kinetic from dmso stock; PBS pH 7.4, room temperature, 24 hours shaking, 1% DMSO, average of two measurements; read-out: Solubility in PBS pH7.4
Method: Test Example 1. Solubility of the Compound of the Present Disclosure in PBS Solution (pH 7.4) at Room Temperature
2.1 Formulation of the PBS solution (pH 7.4): 0.57 g of NaH2PO42.H2O, 5.55 g of Na2HPO4.12H2O and 6.48 g of NaCl were weighed, followed by the addition of ultra-pure water. The pH was adjusted to 7.4±0.05 with 1 M NaOH or 1 M HCl. Water was added until the volume reached 1 L. The PBS solution was stored in a refrigerator at 4° C. (the storage life was 6 months).
2.2 Formulation of the solution of the compound in PBS 7.4: An appropriate amount of the test compound was weighed, and dissolved in DMSO or a mixed solution of DMSO:acetonitrile:ethanol (1:1:1) to obtain a 10 mM stock solution of the test compound. 10 μL of the stock solution of the test compound and 990 μL of the PBS solution (pH 7.4) were precisely measured and placed in a 2 mL sample vial and mixed well, and the DMSO concentration of the final solution was 1% (v/v). This solution was formulated in duplicate, shaken on a plate bed at room temperature for 24 hours, and centrifuged at 5000 rpm for 20 minutes. The supernatant was analyzed by the liquid chromatograph.
2.3 Formulation of the reference solution: 10 μL of the stock solution of the test sample (concentration: 10 mM, dissolved in DMSO) and 990 μL of an organic mixed solvent (usually DMSO:acetonitrile:ethanol=1:1:1) were precisely measured and placed in a 2 mL sample vial, and mixed well to obtain a clear 100 μM sample solution. The solution was filtered through a 0.45 μm organic phase microporous filter membrane, and the filtrate was analyzed by the liquid chromatograph.
Solubility (μM)=peak area of the sample/peak area of the reference*concentration of the reference (μM)*sample solution dilution factor
The average of two measurements was used as the final solubility.

[2] = Pharmacokinetics assay in SD rats after intragastric administration, plasma LC/MS/MS; format: in vivo; conditions: for Detection of the administered prodrug compound itself in rat plasma: after intragastric administration, LC/MS/MS; for In vivo conversion of the prodrug into its metabolite: intragastric administration
Method: Test Example 2. Pharmacokinetics Assay of the Compounds of the Present Disclosure in Rats
SD rats were used as test animals. The drug concentration in plasma at different time points was determined by LC/MS/MS method after oral administration of the compounds of Example 2, Example 6 and Example 7 to SD rats. The pharmacokinetic behavior of the compounds of the present disclosure was studied and evaluated in SD rats.
Forty SD rats (half male and half female, equally divided into ten groups) were purchased from Shanghai Jiesijie Laboratory Animal Co., LTD. (Certificate No.: SCXK(Shanghai) 2013-0006).
An appropriate amount of the compound of Example 2 was weighed, followed by the addition of 5% of DMSO, 5% of tween 80 and 90% of normal saline successively to obtain a colorless, clear and transparent solution.
An appropriate amount of the compound of Example 2 was weighed, followed by the addition of 0.5% sodium carboxymethyl cellulose (containing 0.5% tween 80) to obtain a white homogeneous suspension.
An appropriate amount of the compound of Example 6 was weighed, and added to 200 mM (5% PVPK30+5% TPGS) Na2HPO4 solution (pH=9) to obtain a homogeneous suspension.
An appropriate amount of the compound of Example 7 was weighed, and added to 200 mM (5% PVPK30+5% TPGS) Na2HPO4 solution (pH=9) to obtain a homogeneous suspension.
After an overnight fast, the SD rats were intragastrically administered the test compounds. Regarding to the compound of Example 2 (formulation: 5% of DMSO, 5% of tween 80 and 90% of normal saline), the administration dose was 2 mg/kg, the administration volume was 10 mL/kg, and the administration concentration was 0.2 mg/mL. Regarding to the compound of Example 2 (formulation: 0.5% sodium carboxymethyl cellulose (containing 0.5% tween 80)), the administration dose was 10, 30, 100 mg/kg, the administration volume was 10 mL/kg, and the administration concentration was 1, 3, 10 mg/mL. Regarding to the compound of Example 6, the administration dose was 100, 300, 900 mg/kg, the administration volume was 10 mL/kg, and the administration concentration was 10, 30, 90 mg/mL. Regarding to the compound of Example 7, the administration dose was 10, 30, 100 mg/kg, the administration volume was 10 mL/kg, and the administration concentration was 1, 3, 10 mg/mL.
After an overnight fast, the SD rats were intragastrically administered the test compounds. 0.2 ml of blood was taken from the orbit before the administration and at 0.5, 1.0, 2.0, 4.0, 6.0, 8.0, 11.0 and 24.0 hours after the administration. The samples were stored in heparinized tubes, and centrifuged for 10 minutes at 3500 rpm to separate the blood plasma. The plasma samples were stored at −20° C. The SD rats were fed 2 hours after the administration.
The content of the test compound in the plasma of SD rats after administration of the test compound at different concentrations was determined: 25 μL of SD rat plasma at each time point after the administration was taken, followed by the addition of 50 μL of the internal standard camptothecin solution (100 ng/mL) and 200 μL of acetonitrile. The resulting solution was vortex-mixed for 5 minutes, and centrifuged for 10 minutes (3700 rpm). 3.0 μL of the supernatant was taken from the plasma samples of the compound of Example 2 (the group at the administration dose of 2 mg/kg) for LC/MS/MS analysis. 2.0 μL of the supernatant was taken from the plasma samples of the compound of Example 2 (the group at the administration dose of 10, 30, or 100 mg/kg) for LC/MS/MS analysis. 0.2 μL of the supernatant was taken from the plasma samples of the compound of Example 6 for LC/MS/MS analysis. 1 μL of the supernatant was taken from the plasma samples of the compound of Example 7 for LC/MS/MS analysis. […]

NaV1.8 ion channel = target: T1, NaV1.8 ion channel (Homo sapiens, UniProt Q9Y5Y9); test: Manual patch clamp, inhibitory activity on NaV1.8 stably expressed on HEK293 cells; format: cell-based; conditions: HEK293 cells stably expressing NaV1.8, manual patch clamp, resting protocol (clamped at -80 mV, depolarized to 10 mV), 1 μM TTX; read-out: IC50 on inhibiting the Nav1.8 channel activity
T1 construct: expressed in transfected cells
T1 sequence (Q9Y5Y9 whole entry): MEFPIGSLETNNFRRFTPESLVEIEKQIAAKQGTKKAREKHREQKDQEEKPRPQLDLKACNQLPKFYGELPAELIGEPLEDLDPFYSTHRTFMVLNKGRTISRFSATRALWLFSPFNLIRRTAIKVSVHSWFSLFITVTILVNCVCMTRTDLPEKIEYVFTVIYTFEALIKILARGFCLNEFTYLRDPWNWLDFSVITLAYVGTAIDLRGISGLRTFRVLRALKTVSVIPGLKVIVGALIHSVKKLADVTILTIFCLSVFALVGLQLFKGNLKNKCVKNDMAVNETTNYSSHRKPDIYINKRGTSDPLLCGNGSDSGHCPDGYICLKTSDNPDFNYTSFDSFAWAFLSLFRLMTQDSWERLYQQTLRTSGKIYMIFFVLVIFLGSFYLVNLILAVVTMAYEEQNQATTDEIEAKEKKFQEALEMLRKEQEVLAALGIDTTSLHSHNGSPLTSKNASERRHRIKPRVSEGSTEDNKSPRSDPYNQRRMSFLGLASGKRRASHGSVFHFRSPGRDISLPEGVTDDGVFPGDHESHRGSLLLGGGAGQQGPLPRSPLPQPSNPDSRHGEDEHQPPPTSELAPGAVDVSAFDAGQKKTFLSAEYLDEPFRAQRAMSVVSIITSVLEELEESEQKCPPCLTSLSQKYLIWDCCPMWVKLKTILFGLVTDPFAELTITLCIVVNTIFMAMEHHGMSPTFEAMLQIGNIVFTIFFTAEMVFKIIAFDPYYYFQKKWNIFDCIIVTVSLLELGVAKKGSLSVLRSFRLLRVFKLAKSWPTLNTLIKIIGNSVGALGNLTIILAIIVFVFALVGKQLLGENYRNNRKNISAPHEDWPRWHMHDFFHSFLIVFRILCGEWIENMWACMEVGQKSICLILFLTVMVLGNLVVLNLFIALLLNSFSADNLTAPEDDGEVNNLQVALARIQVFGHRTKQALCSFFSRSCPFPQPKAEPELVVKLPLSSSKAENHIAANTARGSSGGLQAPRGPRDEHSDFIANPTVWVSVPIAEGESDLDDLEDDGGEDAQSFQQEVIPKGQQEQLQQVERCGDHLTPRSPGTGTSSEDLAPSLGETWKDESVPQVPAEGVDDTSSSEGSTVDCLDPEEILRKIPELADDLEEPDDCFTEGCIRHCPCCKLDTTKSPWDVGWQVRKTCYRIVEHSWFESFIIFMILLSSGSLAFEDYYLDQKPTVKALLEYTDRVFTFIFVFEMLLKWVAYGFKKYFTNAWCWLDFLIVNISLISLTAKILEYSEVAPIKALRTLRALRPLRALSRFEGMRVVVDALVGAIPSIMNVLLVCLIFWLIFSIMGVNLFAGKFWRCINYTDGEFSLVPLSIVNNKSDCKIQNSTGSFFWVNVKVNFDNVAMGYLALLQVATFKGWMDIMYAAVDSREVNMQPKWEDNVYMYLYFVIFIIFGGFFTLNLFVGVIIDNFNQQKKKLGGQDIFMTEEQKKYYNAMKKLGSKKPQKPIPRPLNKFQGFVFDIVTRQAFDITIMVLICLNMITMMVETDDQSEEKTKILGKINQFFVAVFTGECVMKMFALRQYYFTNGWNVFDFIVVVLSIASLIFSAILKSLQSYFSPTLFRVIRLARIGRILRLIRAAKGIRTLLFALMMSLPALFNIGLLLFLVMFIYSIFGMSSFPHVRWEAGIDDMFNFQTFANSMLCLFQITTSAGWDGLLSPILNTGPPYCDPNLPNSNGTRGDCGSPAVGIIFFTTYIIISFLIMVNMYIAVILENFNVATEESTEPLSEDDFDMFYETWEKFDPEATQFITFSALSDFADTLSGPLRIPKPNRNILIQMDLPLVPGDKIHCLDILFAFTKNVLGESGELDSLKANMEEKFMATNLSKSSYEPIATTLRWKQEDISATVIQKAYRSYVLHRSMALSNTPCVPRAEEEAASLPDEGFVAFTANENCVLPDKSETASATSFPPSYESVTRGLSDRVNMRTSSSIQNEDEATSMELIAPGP
Excerpt: Test Example 3. Determination of the Inhibitory Activity of the Compounds of the Present Disclosure on NaV1.8
The purpose of the experiment is to investigate the effect of the compounds on NaV1.8 ion channel in an in vitro experiment, wherein the NaV1.8 ion channel is stably expressed on HEK293 cells. After the NaV1.8 current becomes stable, the NaV1.8 currents before and after the administration of the compound are compared so as to obtain the effect of the compound on the NaV1.8 ion channel.
Except for NaOH and KOH used for acid titration and base titration, all the compounds used for formulating the extracellular fluid and intracellular fluid were purchased from Sigma (St. Louis, Mo.). Extracellular fluid (mM): NaCl, 137; KCl, 4; CaCl2, 1.8; MgCl2, 1; HEPES, 10; glucose, 10; pH 7.4 (NaOH titration). Intracellular fluid (mM): aspartic acid, 140; MgCl2, 2; EGTA, 11; HEPES, 10; pH 7.2 (CsOH titration). All solutions of test compound and control compound contained 1 μM TTX.
The test compound was dissolved in dimethyl sulfoxide (DMSO) at a stock concentration of 9 mM. The stock solution of the test compound was dissolved in the extracellular fluid on the day of the test and formulated into the required concentration.
1) The compound was formulated into solutions with specified concentrations, the solutions were added to the pipelines respectively in order from low to high concentration, and the pipelines were marked.
2) The cell was transferred to the perfusion tank. A positive pressure was applied to the electrode. The tip of the electrode touched the cell. The three-way valve of the air extracting device was adjusted to a three-way state. […]
The cell was clamped at −80 mV. […] The maximum current caused by the square wave was measured. […] After the response became stable, the blocking intensity was calculated. […]
The inhibitory activity of the compounds of the present disclosure on NaV1.8 was determined by the above test, and the resulting IC50 values are shown in Table 3.

Row | SMILES | solubility at 24 h [1] | Detection of the administered prodrug compound itself in rat plasma [2] | In vivo conversion of the prodrug into its metabolite [2] | IC50 (NaV1.8 ion channel)
1 | Cc1cc(F)ccc1Oc1cc(C(F)(F)F)c(Cl)cc1C(=O)Nc1cnn(COC(=O)CCC(=O)O)c(=O)c1 [Example 2, 4-((4-(5-Chloro-2-(4-fluoro-2-methylphenoxy)-4-(trifluoromethyl)benzamido)-6-oxopyridazin-1(6H)-yl)methoxy)-4-oxobutanoic acid] | 57.4 µM (≈ 32.8 µg/mL) | not detected | converted into compound 1h in vivo | 37.6 nM
2 | COc1cc(F)ccc1Oc1cc(C(F)(F)F)c(Cl)cc1C(=O)Nc1cnn(COC(=O)CCC(=O)O)c(=O)c1 [Example 6, 4-((4-(5-Chloro-2-(4-fluoro-2-methoxyphenoxy)-4-(trifluoromethyl)benzamido)-6-oxopyridazin-1(6H)-yl)methoxy)-4-oxobutanoic acid] | 44.9 µM (≈ 26.4 µg/mL) | not detected | converted into compound 6c in vivo | 3.9 nM
3 | [2H]C([2H])([2H])Oc1cc(F)ccc1Oc1cc(C(F)(F)F)c(Cl)cc1C(=O)Nc1cnn(COC(=O)CCC(=O)O)c(=O)c1 [Example 7, 4-((4-(5-Chloro-2-(4-fluoro-2-(methoxy-d3)phenoxy)-4-(trifluoromethyl)benzamido)-6-oxopyridazin-1(6H)-yl)methoxy)-4-oxobutanoic acid] | 34.5 µM (≈ 20.4 µg/mL) | not detected | converted into compound 7d in vivo | 14.5 nM
